Molecules are shown by their SMILES.

The assay has as its target T1, Chk1 (Homo sapiens, UniProt O14757).
T1 construct: purchased Upstate Biotechnology
T1 sequence (O14757 1-476): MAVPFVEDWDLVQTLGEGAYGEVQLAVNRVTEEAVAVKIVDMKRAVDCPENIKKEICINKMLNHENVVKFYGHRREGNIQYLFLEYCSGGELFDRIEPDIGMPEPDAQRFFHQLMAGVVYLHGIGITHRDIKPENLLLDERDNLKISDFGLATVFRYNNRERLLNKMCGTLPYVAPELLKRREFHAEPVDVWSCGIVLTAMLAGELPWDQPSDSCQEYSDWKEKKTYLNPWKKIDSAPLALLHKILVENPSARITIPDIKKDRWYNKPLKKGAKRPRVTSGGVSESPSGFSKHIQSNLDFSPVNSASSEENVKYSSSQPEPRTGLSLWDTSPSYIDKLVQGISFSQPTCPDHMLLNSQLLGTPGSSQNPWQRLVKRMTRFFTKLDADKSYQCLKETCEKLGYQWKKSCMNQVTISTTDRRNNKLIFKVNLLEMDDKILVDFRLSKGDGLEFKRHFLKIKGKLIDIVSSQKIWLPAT
Nature of the assay: Chk1 kinase assay: incorporation of γ-33P ATP into immobilized myelin basic protein. Type of assay: biochemical. The note with it: read-out: Chk1 IC50. As for the experimental part:
Chk1 and Chk2 assays were performed by measuring incorporation of γ-^33P ATP into immobilized myelin basic protein (MBP). High binding white 384 well plates (Greiner) were coated with MBP (Sigma #M-1891) by incubation of 60 ul/well of 20 μg/ml MBP in Tris-buffered saline (TBS; 50 mM Tris pH 8.0, 138 mM NaCl, 2.7 mM KCl) for 24 hours at 4° C. Plates were washed 3× with 100 μl TBS. Kinase reactions were carried out in a total volume of 34 μl in kinase buffer (5 mM Hepes pH 7.6, 15 mM NaCl, 0.01% bovine gamma globulin (Sigma #I-5506), 10 mM MgCl2, 1 mM DTT, 0.02% TritonX-100). Compound dilutions were performed in DMSO and added to assay wells to a final DMSO concentration of 1%. Each data point was measured in duplicate, and at least two duplicate assays were performed for each individual compound determination. Chk1 and Chk2 enzymes (Upstate Biotechnology) were added to final concentrations of 10 nM (Chk1) or 20 nM (Chk2). A mixture of unlabeled ATP and γ-^33P ATP was added to start the reaction (2×10^6 cpm of γ-^33P ATP per well (3000 Ci/mmole) and either 10 μM or 30 μM unlabeled ATP (for Chk1 and Chk2 assays respectively). The reaction was carried out for 1 hour at room temperature with shaking. Plates were washed 7× with TBS, followed by the addition of 50 μl/well scintillation fluid (Wallac). Plates were read using a Wallac Trilux counter. This is only one format of such assays, various other formats are possible, as known to those skilled in the art.
The above assay procedure can be used to determine the IC50 for inhibition and/or the inhibition constant Ki. The IC50 is defined as the concentration of compound required to reduce the enzyme activity by 50% under the conditions of the assay. […] The Ki for a compound may be determined from the IC50 based on three assumptions. First, only one compound molecule binds to the enzyme and there is no cooperativity. […] Third, the enzymatic rate of the enzyme-inhibitor complex is zero. The rate (i.e., compound concentration) data are fitted to the equation: […]
With `Nc1ncc(-c2ccccc2)nc1C(=O)N[C@H]1CCc2ccccc21` [Example 5, 3-amino-N-[(1S)-2,3-dihydro-1H-inden-1-yl]-6-phenylpyrazine-2-carboxamide], the IC50 was at least 10000 nM.
`Nc1ncc(-c2ccccc2)nc1C(=O)NC1CCCCC1` [Example 14, 3-amino-N-cyclohexyl-6-phenylpyrazine-2-carboxamide]: the concentration for half-maximal inhibition (IC50) is at least 10000 nM.
`COc1ccccc1-c1cnc(N)c(C(N)=O)n1` [Example 17, 3-amino-6-[2-(methyloxy)phenyl]pyrazine-2-carboxamide]: the IC50 was at least 10000 nM.
Turning to `NC(=O)c1nc(-c2ccc(F)cc2F)cnc1N` [Example 18, 3-amino-6-(2,4-difluorophenyl)pyrazine-2-carboxamide], the IC50 was at least 10000 nM.
In the case of `NC(=O)c1nc(-c2cccc(F)c2)cnc1N` [Example 19, 3-amino-6-(3-fluorophenyl)pyrazine-2-carboxamide], the IC50 was at least 10000 nM.
With `NC(=O)c1nc(-c2ccc3ccccc3c2)cnc1N` [Example 27, 3-amino-6-naphthalen-2-ylpyrazine-2-carboxamide], the IC50 is at least 10000 nM.
Turning to `CNC(=O)c1cc(-c2cccc(CO)c2)cnc1N` [Example 35], the IC50 lay within 50 to 1000 nM.
Take `NC(=O)c1nc(-c2ccccc2)cnc1NCc1ccccc1` [Example 39, 6-phenyl-3-[(phenylmethyl)amino]pyrazine-2-carboxamide]: the IC50 was at least 10000 nM.
With `CCCNc1ncc(-c2ccccc2)nc1C(N)=O` [Example 40, 6-phenyl-3-(propylamino)pyrazine-2-carboxamide], the IC50 was at least 10000 nM.
For `CNC(=O)c1nc(-c2cccc(N)c2)cnc1N` [Example 51, 3-amino-6-(3-aminophenyl)-N-methylpyrazine-2-carboxamide], the IC50 is 50 to 1000 nM.
For the molecule `CNC(=O)c1nc(-c2cccc(CO)c2)cnc1N` [Example 57, 3-amino-6-[3-(hydroxymethyl)phenyl]-N-methylpyrazine-2-carboxamide], the IC50 lay within 50 to 1000 nM.
Take `CNC(=O)c1nc(-c2ccc(CO)cc2)cnc1N` [Example 58, 3-amino-6-[4-(hydroxymethyl)phenyl]-N-methylpyrazine-2-carboxamide]: the IC50 lay in the range of 1000 to 10000 nM.
As to `C/N=C(\C)c1cccc(-c2cnc(N)c(C(=O)NC)n2)c1` [Example 59, 3-amino-N-methyl-6-{3-[(1E)-N-methylethanimidoyl]phenyl}pyrazine-2-carboxamide], the IC50 was in the range of 1000 to 10000 nM.
As to `CNC(=O)c1nc(-c2cccc(OC)c2)cnc1N` [Example 60, 3-amino-N-methyl-6-[3-(methyloxy)phenyl]pyrazine-2-carboxamide], the IC50 lay within 1000 to 10000 nM.
As to `CNC(=O)c1nc(-c2ccc(NC(C)=O)cc2)cnc1N` [Example 63, 6-[4-(acetylamino)phenyl]-3-amino-N-methylpyrazine-2-carboxamide], the IC50 was in the range of 1000 to 10000 nM.
`CNC(=O)c1nc(-c2noc(C3CCCC3)n2)cnc1N` [Example 67, 3-amino-6-(5-cyclopentyl-1,2,4-oxadiazol-3-yl)-N-methylpyrazine-2-carboxamide]: the IC50 is at least 10000 nM.
Consider `CNC(=O)c1nc(-c2noc(-c3ccccc3)n2)cnc1N` [Example 69, 3-amino-N-methyl-6-(5-phenyl-1,2,4-oxadiazol-3-yl)pyrazine-2-carboxamide], for which the IC50 is at least 10000 nM.
In the case of `CNC(=O)c1nc(-c2noc(Cc3ccccc3)n2)cnc1N` [Example 70, 3-amino-N-methyl-6-[5-(phenylmethyl)-1,2,4-oxadiazol-3-yl]pyrazine-2-carboxamide], the IC50 is at least 10000 nM.
Regarding `CNC(=O)c1nc(-c2noc(CCc3ccccc3)n2)cnc1N` [Example 72, 3-amino-N-methyl-6-[5-(2-phenylethyl)-1,2,4-oxadiazol-3-yl]pyrazine-2-carboxamide], the IC50 was at least 10000 nM.
On to `CNC(=O)c1nc(-c2noc(C(C)(C)C)n2)cnc1N` [Example 74, 3-amino-6-[5-(1,1-dimethylethyl)-1,2,4-oxadiazol-3-yl]-N-methylpyrazine-2-carboxamide], for which the IC50 is at least 10000 nM.
Take `CNC(=O)c1nc(-c2noc(-c3ccco3)n2)cnc1N` [Example 75, 3-amino-6-(5-furan-2-yl-1,2,4-oxadiazol-3-yl)-N-methylpyrazine-2-carboxamide]: the IC50 is at least 10000 nM.
Consider `CNC(=O)c1nc(-c2ccc(N(C)C)cc2)cnc1N` [Example 76, 3-amino-6-[4-(dimethylamino)phenyl]-N-methylpyrazine-2-carboxamide], for which the half-inhibitory concentration (IC50) was in the range of 1000 to 10000 nM.
As for `CNC(=O)c1nc(-c2ccc(NS(C)(=O)=O)cc2)cnc1N` [Example 77, 3-amino-N-methyl-6-{4-[(methylsulfonyl)amino]phenyl}pyrazine-2-carboxamide], the IC50 is 1000 to 10000 nM.
The figure for `CNC(=O)c1nc(-c2cc(C)cc(C)c2)cnc1N` [Example 78, 3-amino-6-(3,5-dimethylphenyl)-N-methylpyrazine-2-carboxamide] is 1000 to 10000 nM; for `CNC(=O)c1nc(-c2ccc(C(C)=O)cc2)cnc1N` [Example 79, 6-(4-acetylphenyl)-3-amino-N-methylpyrazine-2-carboxamide] it is 1000 to 10000 nM.
For the molecule `CNC(=O)c1nc(-c2ccc(OC)c(OC)c2)cnc1N` [Example 80, 3-amino-6-[3,4-bis(methyloxy)phenyl]-N-methylpyrazine-2-carboxamide], the IC50 lay in the range of 1000 to 10000 nM.
As for `CNC(=O)c1nc(-c2cccc(NC(=O)c3ccccc3)c2)cnc1N` [Example 81, 3-amino-N-methyl-6-{3-[(phenylcarbonyl)amino]phenyl}pyrazine-2-carboxamide], the IC50 lay within 50 to 1000 nM.
As for `CNC(=O)c1nc(-c2cccc(NS(C)(=O)=O)c2)cnc1N` [Example 82, 3-amino-N-methyl-6-{3-[(methylsulfonyl)amino]phenyl}pyrazine-2-carboxamide], the 50% inhibitory concentration (IC50) was 1000 to 10000 nM.
In the case of `CNC(=O)c1nc(-c2cccc(-c3nnn[nH]3)c2)cnc1N` [Example 83, 3-amino-N-methyl-6-[3-(1H-tetrazol-5-yl)phenyl]pyrazine-2-carboxamide], the IC50 fell in the range of 1000 to 10000 nM.
`CNC(=O)c1nc(-c2cccc(C(=O)NCc3ccccc3)c2)cnc1N` [Example 84, 3-amino-N-methyl-6-(3-{[(phenylmethyl)amino]carbonyl}phenyl)pyrazine-2-carboxamide]: the IC50 lay in the range of 50 to 1000 nM.
On to `CNC(=O)c1nc(-c2cccc(C(N)=O)c2)cnc1N` [Example 85, 3-amino-6-[3-(aminocarbonyl)phenyl]-N-methylpyrazine-2-carboxamide], for which the IC50 lay in the range of 1000 to 10000 nM.
The figure for `CNC(=O)c1nc(-c2cccc(C(=O)N(C)C)c2)cnc1N` [Example 86, 3-amino-6-{3-[(dimethylamino)carbonyl]phenyl}-N-methylpyrazine-2-carboxamide] is 1000 to 10000 nM; for `CNC(=O)c1nc(-c2ccc(S(C)(=O)=O)cc2)cnc1N` [Example 87, 3-amino-N-methyl-6-[4-(methylsulfonyl)phenyl]pyrazine-2-carboxamide] it is 1000 to 10000 nM; for `CCNC(=O)c1nc(-c2cccc(N)c2)cnc1N` [Example 88, 3-amino-6-(3-aminophenyl)-N-ethylpyrazine-2-carboxamide] it is 1000 to 10000 nM.
`CNC(=O)c1nc(-c2cccc(NC(=O)Nc3ccc(F)cc3)c2)cnc1N` [Example 89, 3-amino-6-[3-({[(4-fluorophenyl)amino]carbonyl}amino)phenyl]-N-methylpyrazine-2-carboxamide]: the IC50 was in the range of 50 to 1000 nM.
With `CNC(=O)c1nc(-c2cccc(NC(=O)Nc3ccc(OC)cc3)c2)cnc1N` [Example 90, 3-amino-N-methyl-6-{3-[({[4-(methyloxy)phenyl]amino}carbonyl)amino]phenyl}pyrazine-2-carboxamide], the IC50 is 50 to 1000 nM.
Consider `CNC(=O)c1nc(-c2cccc(NC(=O)Nc3cccc(-c4cnc(N)c(C(=O)NC)n4)c3)c2)cnc1N` [Example 91, 6,6′-[(oxomethanediyl)bis(iminobenzene-3,1-diyl)]bis(3-amino-N-methylpyrazine-2-carboxamide)], for which the IC50 was under 50 nM.

The IC50 is the point on the concentration scale where inhibition reaches its midpoint.

For the origin of these results see US7704995B2 (Exelixis, Inc., priority 2003, dated 2010).
